Among the data in article PMC3501149 (ACS Chemical Biology, 2012) are luminescence emission spectrum values, retold here.

The assay addresses firefly luciferase (Fluc) (Photinus pyralis, UniProt P08659). As to the kind of experiment: luminescence emission spectrum. In kind it is biochemical.

Sequence of firefly luciferase (Fluc) (P08659 whole entry): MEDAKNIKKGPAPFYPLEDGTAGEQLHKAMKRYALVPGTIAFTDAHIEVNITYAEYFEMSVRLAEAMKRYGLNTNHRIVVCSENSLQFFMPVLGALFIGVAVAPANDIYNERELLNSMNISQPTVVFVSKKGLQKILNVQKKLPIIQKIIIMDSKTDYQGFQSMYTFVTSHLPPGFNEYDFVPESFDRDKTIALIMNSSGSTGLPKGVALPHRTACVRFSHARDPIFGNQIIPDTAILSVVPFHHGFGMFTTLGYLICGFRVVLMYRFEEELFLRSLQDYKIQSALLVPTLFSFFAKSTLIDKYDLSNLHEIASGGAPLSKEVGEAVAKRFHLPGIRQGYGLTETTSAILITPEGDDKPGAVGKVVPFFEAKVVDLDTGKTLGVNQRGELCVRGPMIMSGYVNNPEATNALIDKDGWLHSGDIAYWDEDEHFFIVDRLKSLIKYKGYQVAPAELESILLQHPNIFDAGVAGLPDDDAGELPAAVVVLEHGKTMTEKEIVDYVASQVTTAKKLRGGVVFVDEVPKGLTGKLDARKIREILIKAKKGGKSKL

As to `O=C(O)[C@H]1CSC(c2nc3ccc(O)cc3s2)=N1` [D-luciferin], the luminescence emission spectrum entry is “Fluc (D-luciferin)”.
